From publication PMC11642016 (International Journal of Molecular Sciences, 2024)
Several values for one entry are separate records, joined by “and”; a condition that tells them apart may be missing. Equal entries are not always repeated. Where two headings read alike, the source gives them in different places.

What was measured:
PANC-1 cells [1] = assay: Colony formation (clonogenic) assay; type: cell-based, human; settings: 4 µM
PANC-1 and Fadu cells = assay: CellTiter-Glo viability, statements covering both cancer cell lines; type: cell-based, human; settings: 72 h dose–response
[2] = CellTiter-Glo cell viability assay, HEK293T WT; settings: human, HEK293T WT cells, HEK293T WT Cell viability (% of controll), 72 h, dose–response, individual replicates
Procedure: (§1) Primary fibroblast cultures were prepared from human skin biopsies and maintained in DMEM supplemented with 10% FBS, 1% penicillin-streptomycin, and 1% MEM Non-Essential Amino Acids Solution (Thermo Fisher Scientific). […] All cell lines were cultured in a humidified atmosphere at 37 °C and 5% CO2, passaged twice a week, and the experiments were performed on cells between passage 5 and 15. The cell lines were routinely screened for the absence of mycoplasma infection (DAPI staining).
(§2) The effects of the synthesized compounds on cell viability were measured using the CellTiter-Glo® luminescent cell viability assay (Promega, Madison, WI, USA), according to the manufacturer’s instructions. Briefly, cells were seeded onto a flat-bottomed, white 96-well plate (BRANDplates, cat. no.: 781965)), with the following densities: PANC-1: 750 cells/well, Fadu: 2000 cells/well, primary fibroblasts: 2000 cells/well, HEK293T WT: 1000 cells/well, HEK293T CLPP^−/−: 2500 cells/well. After seeding, cells were incubated for a further 48 h before treatment. Cells were treated with the compounds for 72 h. Three concentrations (25.0 µM; 8.3 µM; 2.8 µM) were applied during the initial cell viability screening, while for the determination of dose–response curves, 1.5-fold serially diluted compound concentrations were applied (range: 26 µM–0.7 µM). After treatment, the luminescence signal was recorded using a microplate reader (BioTek Synergy 2 Multi-Mode Reader, BioTek, Winooski, VT, USA).
(§3) Data analysis was performed using GraphPad Prism 9.5.0 software (GraphPad Software, San Diego, CA, USA). […] The dose–response curves were generated by four-parameter nonlinear regression, and the IC50 values were determined as the means ± SEM of the best-fit values of 3 independent measurements. The R^2 values were consistently above 0.93, indicating a strong fit of the model to the experimental data (Supplementary S.89). […] Dunnett’s post hoc test was applied to adjust for multiple comparisons, minimizing the likelihood of false positive results. Assumptions for ANOVA, including normality (assessed via QQ plots) and homogeneity of variance (tested using the Brown–Forsythe test), were verified. The following significance levels were applied: * p < 0.05, ** p < 0.01, *** p < 0.001, **** p < 0.0001. […] The tumor selectivity of the compounds was quantitatively characterized by the selectivity index (SI). This parameter was calculated as the ratio of the average best-fit IC50 value for primary fibroblasts and the best-fit IC50 value for the corresponding tumor cells (PANC-1 or Fadu).

HEK293T WT cells = assay: CellTiter-Glo cell viability assay, HEK293T WT; settings: for HEK293T WT Cell viability (% of controll): dose–response, individual replicates
Procedure: as §1, §2, §3

Fadu cells = assay: CellTiter-Glo luminescent cell viability assay, Fadu
PANC-1 cells [3] = assay: CellTiter-Glo luminescent cell viability assay, PANC-1; settings: 72 h, dose–response, individual replicates

## CNCC#Cc1cccc(CN2C(=O)C3=C(CCN(Cc4ccc(-n5cc(-c6ccccc6)nn5)cc4)C3)N3CCN=C23)c1 [38b]
PANC-1 cells [1]; 24 h treatment followed by 5 days post-incubation
  viable cells / colonies after shorter exposure: left only traces of viable cells
PANC-1 cells [1]; 72 h treatment followed by 3 days post-incubation
  viable cells / colonies after longer exposure: no viable cells were discernible
PANC-1 and Fadu cells
  concentration range of almost complete eradication of PANC-1 and Fadu cells with little to no cytotoxic effect toward fibroblasts: 3000 to 4000 nM
[2]; 0.4 μM
  viability at 72 h, 0.4 µM: 121%
[2]; 0.6 μM
  viability at 72 h, 0.6 µM: 107%
[2]; 1.0 μM
  viability at 72 h, 1 µM: 109%
[2]; 1.6 μM
  viability at 72 h, 1.6 µM: 64%
[2]; 4.0 μM
  viability at 72 h, 4 µM: 0%
[2]; 6.4 μM
  viability at 72 h, 6.4 µM: 0%
[2]; 16.25 μM
  viability at 72 h, 16.25 µM: 0%
[2]; 26 μM
  viability at 72 h, 26 µM: 0%
HEK293T WT cells; 0.4 μM, 72 h
  HEK293T WT Cell viability (% of controll): 116 % of controll and 117 % of controll and 121 % of controll
HEK293T WT cells; 0.6 μM, 72 h
  HEK293T WT Cell viability (% of controll): 110 % of controll and 120 % of controll and 116 % of controll
HEK293T WT cells; 1.0 μM, 72 h
  HEK293T WT Cell viability (% of controll): 110 % of controll and 102 % of controll
HEK293T WT cells; 1.6 μM, 72 h
  HEK293T WT Cell viability (% of controll): 66 % of controll and 67 % of controll and 83 % of controll
HEK293T WT cells; 2.5 μM, 72 h
  HEK293T WT Cell viability (% of controll): 6 % of controll and 15 % of controll and 12 % of controll (2×)
HEK293T WT cells; 4.0 μM, 72 h
  HEK293T WT Cell viability (% of controll): 0 % of controll
HEK293T WT cells; 6.4 μM, 72 h
  HEK293T WT Cell viability (% of controll): 0 % of controll
HEK293T WT cells; 16.25 μM, 72 h
  HEK293T WT Cell viability (% of controll): 0 % of controll
HEK293T WT cells; 26 μM, 72 h
  HEK293T WT Cell viability (% of controll): 0 % of controll
HEK293T WT cells; Homo sapiens, HEK-293T, 72 h, read-out: IC50 (µM) HEK293T WT, 72 h treatment, ± SEM, best-fit values, n = 4
  IC50: 1.7 ± 0.02 µM
HEK293T WT cells; Homo sapiens, HEK-293T, read-out: HEK293T WT IC50 values, Mean, mean of independently fitted replicate IC50 values (Supplement S.6)
  IC50: 1.67 µM
HEK293T WT cells; Homo sapiens, HEK-293T, read-out: HEK293T WT IC50 values, individual replicates n1-n4, IC50 independently determined for each replicate measurement (Supplement S.6)
  IC50: 1.61 µM
HEK293T WT cells; read-out: HEK293T WT IC50 values, individual replicates n1-n4, IC50 independently determined for each replicate measurement (Supplement S.6)
  IC50: 1.66 µM and 1.63 µM and 1.79 µM
Fadu cells; 0.7 μM, 72 h, dose–response, individual replicates
  Fadu Cell viability (% of controll): 108 % of controll and 109 % of controll
Fadu cells; 1 μM, 72 h, dose–response, individual replicates
  Fadu Cell viability (% of controll): 109 % of controll and 105 % of controll
Fadu cells; 1.5 μM, 72 h, dose–response, individual replicates
  Fadu Cell viability (% of controll): 105 % of controll and 106 % of controll
Fadu cells; 2.3 μM, 72 h, dose–response, individual replicates
  Fadu Cell viability (% of controll): 99 % of controll and 98 % of controll
Fadu cells; 3.4 μM, 72 h, dose–response, individual replicates
  Fadu Cell viability (% of controll): 70 % of controll and 37 % of controll and 29 % of controll
Fadu cells; 5.1 μM, 72 h, dose–response, individual replicates
  Fadu Cell viability (% of controll): 10 % of controll and 1 % of controll and 2 % of controll
Fadu cells; 7.7 μM, 72 h, dose–response, individual replicates
  Fadu Cell viability (% of controll): 0 % of controll
Fadu cells; 17.3 μM, 72 h, dose–response, individual replicates
  Fadu Cell viability (% of controll): 0 % of controll
Fadu cells; 26 μM, 72 h, dose–response, individual replicates
  Fadu Cell viability (% of controll): 0 % of controll
Fadu cells; Homo sapiens, FaDu, 72 h, read-out: Cell Viability (% of Control) 2.8 µM, Fadu, 2.8 µM, 72 h, second-set screening, mean ± SD, n = 2
  viability at 2.8 µM: 91 ± 17%
Fadu cells; Homo sapiens, FaDu, 72 h, read-out: Cell Viability (% of Control) 8.3 µM, Fadu, 8.3 µM, 72 h, second-set screening, mean ± SD, n = 2
  viability at 8.3 µM: 0%
Fadu cells; Homo sapiens, FaDu, 72 h, read-out: Cell Viability (% of Control) 25 µM, Fadu, 25 µM, 72 h, second-set screening, mean ± SD, n = 2
  viability at 25 µM: 0%
Fadu cells; Homo sapiens, FaDu, 72 h, read-out: Fadu Cell viability (% of controll), 0.7 μM, 72 h, dose–response, individual replicates
  viability at 0.7 µM: 103%
Fadu cells; Homo sapiens, FaDu, 72 h, read-out: Fadu Cell viability (% of controll), 1 μM, 72 h, dose–response, individual replicates
  viability at 1 µM: 113%
Fadu cells; Homo sapiens, FaDu, 72 h, read-out: Fadu Cell viability (% of controll), 1.5 μM, 72 h, dose–response, individual replicates
  viability at 1.5 µM: 104%
Fadu cells; Homo sapiens, FaDu, 72 h, read-out: Fadu Cell viability (% of controll), 2.3 μM, 72 h, dose–response, individual replicates
  viability at 2.3 µM: 104%
Fadu cells; Homo sapiens, FaDu, 72 h, read-out: Fadu Cell viability (% of controll), 7.7 μM, 72 h, dose–response, individual replicates
  viability at 7.7 µM: 0%
Fadu cells; Homo sapiens, FaDu, 72 h, read-out: Fadu Cell viability (% of controll), 17.3 μM, 72 h, dose–response, individual replicates
  viability at 17.3 µM: 0%
Fadu cells; Homo sapiens, FaDu, 72 h, read-out: Fadu Cell viability (% of controll), 26 μM, 72 h, dose–response, individual replicates
  viability at 26 µM: 0%
Fadu cells; Homo sapiens, FaDu, 72 h, read-out: IC50 Value ± SEM Fadu, 72 h treatment, best-fit values, n = 3
  IC50: 3.3 ± 0.07 µM
Fadu cells; ratio of mean best-fit IC50 for primary fibroblasts and best-fit IC50 for Fadu
  Selectivity Index (SI) Fibroblast/Fadu: 1.3
PANC-1 cells [3]; 0.7 μM
  PANC-1 Cell viability (% of controll): 103 % of controll
PANC-1 cells [3]; 1 μM
  PANC-1 Cell viability (% of controll): 108 % of controll
PANC-1 cells [3]; 1.5 μM
  PANC-1 Cell viability (% of controll): 107 % of controll and 116 % of controll
PANC-1 cells [3]; 2.3 μM
  PANC-1 Cell viability (% of controll): 79 % of controll and 98 % of controll
PANC-1 cells [3]; 3.4 μM
  PANC-1 Cell viability (% of controll): 0 % of controll and 1 % of controll
PANC-1 cells [3]; 5.1 μM
  PANC-1 Cell viability (% of controll): 0 % of controll
PANC-1 cells [3]; 7.7 μM
  PANC-1 Cell viability (% of controll): 0 % of controll
PANC-1 cells [3]; 17.3 μM
  PANC-1 Cell viability (% of controll): 0 % of controll
